Experimental findings from ChEMBL document CHEMBL5212743, “Selectivity Literature for EUbOPEN Chemogenomics Library wave 3” (2023) are described below.

Experiment [1] has as its system T1, Receptor-type tyrosine-protein kinase FLT3 (Homo sapiens), P36888 [N841I].
T1 sequence (whole entry): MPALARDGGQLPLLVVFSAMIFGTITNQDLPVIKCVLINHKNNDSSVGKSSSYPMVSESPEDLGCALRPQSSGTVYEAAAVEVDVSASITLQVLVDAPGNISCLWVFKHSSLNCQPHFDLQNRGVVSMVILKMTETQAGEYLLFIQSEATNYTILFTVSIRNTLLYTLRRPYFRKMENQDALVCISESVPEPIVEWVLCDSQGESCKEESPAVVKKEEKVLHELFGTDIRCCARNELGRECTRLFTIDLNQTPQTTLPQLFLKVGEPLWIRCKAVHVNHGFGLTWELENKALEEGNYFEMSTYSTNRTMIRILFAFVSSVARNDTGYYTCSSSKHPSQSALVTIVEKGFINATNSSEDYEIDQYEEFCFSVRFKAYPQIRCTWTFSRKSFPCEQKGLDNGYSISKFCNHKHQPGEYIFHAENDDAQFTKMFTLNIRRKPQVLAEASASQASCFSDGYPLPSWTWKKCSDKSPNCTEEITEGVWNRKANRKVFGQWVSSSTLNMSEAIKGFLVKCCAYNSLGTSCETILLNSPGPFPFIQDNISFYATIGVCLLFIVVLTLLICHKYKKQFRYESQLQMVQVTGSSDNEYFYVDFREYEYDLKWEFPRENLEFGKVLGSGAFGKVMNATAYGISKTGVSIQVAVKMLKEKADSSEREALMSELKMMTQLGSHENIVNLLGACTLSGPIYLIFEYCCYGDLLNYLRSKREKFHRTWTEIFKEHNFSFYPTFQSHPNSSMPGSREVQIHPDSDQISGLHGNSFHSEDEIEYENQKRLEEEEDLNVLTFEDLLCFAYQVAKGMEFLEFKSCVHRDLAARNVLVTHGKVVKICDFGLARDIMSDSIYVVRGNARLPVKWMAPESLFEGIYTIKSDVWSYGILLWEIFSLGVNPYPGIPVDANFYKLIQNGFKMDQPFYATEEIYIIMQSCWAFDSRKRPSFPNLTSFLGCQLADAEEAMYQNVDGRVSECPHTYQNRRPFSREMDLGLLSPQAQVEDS
Nature of the experiment: (§1) Selectivity interaction (KinomeScan (DiscoverX)) EUB0000138c FLT3. The conditions noted are these: at 100 nM.

Experiment [2] relates to T2, Receptor-type tyrosine-protein kinase FLT3 (Homo sapiens), P36888 [D835V].
T2 sequence (whole entry): T1 sequence (whole entry) with D835V, I841N
The description is as §1. The settings on record: at 100 nM.

For experiment [3], the target named is T3, Tyrosine-protein kinase JAK3 (Homo sapiens) (UniProt P52333).
T3 sequence (whole entry): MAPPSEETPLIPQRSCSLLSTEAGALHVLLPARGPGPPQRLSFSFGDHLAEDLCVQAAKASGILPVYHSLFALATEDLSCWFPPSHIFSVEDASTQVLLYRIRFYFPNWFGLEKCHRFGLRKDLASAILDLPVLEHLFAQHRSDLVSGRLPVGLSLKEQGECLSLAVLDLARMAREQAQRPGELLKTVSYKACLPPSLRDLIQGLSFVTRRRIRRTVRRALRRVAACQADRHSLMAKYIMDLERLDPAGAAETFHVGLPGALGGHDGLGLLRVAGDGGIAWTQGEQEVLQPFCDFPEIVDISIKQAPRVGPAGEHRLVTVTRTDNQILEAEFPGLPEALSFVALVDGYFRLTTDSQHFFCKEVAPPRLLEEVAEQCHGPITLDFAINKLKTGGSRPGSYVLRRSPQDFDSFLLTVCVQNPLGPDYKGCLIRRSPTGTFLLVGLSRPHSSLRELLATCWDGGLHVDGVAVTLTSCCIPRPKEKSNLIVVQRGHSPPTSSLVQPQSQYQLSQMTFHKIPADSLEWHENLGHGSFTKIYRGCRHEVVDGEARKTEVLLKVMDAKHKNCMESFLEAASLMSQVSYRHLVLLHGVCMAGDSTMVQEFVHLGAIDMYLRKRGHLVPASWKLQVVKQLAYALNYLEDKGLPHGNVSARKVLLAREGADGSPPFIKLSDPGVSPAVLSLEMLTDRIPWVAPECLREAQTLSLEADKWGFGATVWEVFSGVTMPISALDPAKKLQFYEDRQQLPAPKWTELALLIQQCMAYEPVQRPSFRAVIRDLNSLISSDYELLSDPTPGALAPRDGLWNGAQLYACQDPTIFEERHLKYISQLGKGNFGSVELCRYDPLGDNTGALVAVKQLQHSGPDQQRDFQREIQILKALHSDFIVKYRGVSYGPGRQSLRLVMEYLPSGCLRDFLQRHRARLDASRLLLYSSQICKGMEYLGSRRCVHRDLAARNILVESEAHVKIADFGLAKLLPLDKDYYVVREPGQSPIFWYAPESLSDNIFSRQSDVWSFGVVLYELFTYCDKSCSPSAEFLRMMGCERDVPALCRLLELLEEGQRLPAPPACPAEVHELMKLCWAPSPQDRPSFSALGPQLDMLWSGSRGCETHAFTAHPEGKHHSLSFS
In words: Selectivity interaction (KinomeScan (DiscoverX)) EUB0000702a JAK3. The conditions noted are these: at 1 µM.

Where a chain is given by its changes, count along the chain named.

With `CNC(=O)c1ccc(Nc2ncc(C(F)(F)F)c(NCc3nccnc3N(C)S(C)(=O)=O)n2)cc1` [DEFACTINIB], the figures for the % of control in experiment [1] and in experiment [2] were 0% and 0.2%, respectively.

`CN(c1ccnc(CNc2nc(Nc3ccc4c(c3)CC(=O)N4)ncc2C(F)(F)F)n1)S(C)(=O)=O` [PF-00911705] yielded a % of control in experiment [3] of 1.9%.
